Experimental data: patent US8507219B2, “Method of treating inflammation with statins” (MUSC Foundation for Research Development, priority 1997, dated 2013)

Key:
[1] = test system: TNF-α production in rat primary astrocytes; assay: LPS-induced TNF-α production (ELISA) in rat primary astrocytes; format: cell-based; details: forskolin 10 μM; 8-Br-cAMP 100 μM; rolipram 20 μM; H-89 2 μM; myristoylated PKI 0.4 μM
Protocol: (§1) Determination of TNF-α and IL-1β in culture supernatants Cells were stimulated with LPS in serum-free media for 24 h in the presence or absence of forskolin or rolipram, and concentrations of TNF-α and IL-1β were measured in culture supernatants by using high-sensitivity enzyme-linked immunosorbent assay (R&D Systems, USA) according to the manufacturer's instructions.

[2] = test system: IL-1β production in rat primary astrocytes; assay: LPS-induced IL-1β production (ELISA) in rat primary astrocytes; format: cell-based; details: forskolin 10 μM; 8-Br-cAMP 100 μM; rolipram 20 μM; H-89 2 μM; myristoylated PKI 0.4 μM
Protocol: as §1

[3] = test system: TNF-α production in rat primary microglia; assay: LPS-induced TNF-α production (ELISA) in rat primary microglia; format: cell-based; details: 10 μM forskolin or 20 μM rolipram 15 min, then LPS 1.0 μg/ml, 24 h
Protocol: as §1

[4] = test system: cultured skin fibroblasts of X-ALD; assay: β-oxidation of lignoceric acid in cultured skin fibroblasts of X-ALD; format: cell-based, human
[5] = test system: IL-1β production in rat primary microglia; assay: LPS-induced IL-1β production (ELISA) in rat primary microglia; format: cell-based; details: 10 μM forskolin or 20 μM rolipram 15 min, then LPS 1.0 μg/ml, 24 h
Protocol: as §1

[6] = test system: cultured skin fibroblasts of X-ALD; assay: VLCFA ratios (C26:0/C22:0, C24:0/C22:0) in X-ALD skin fibroblasts; format: cell-based, human
[7] = inferred from reports in mice and marmoset (Sommer et al., 1995); cited from earlier work
control skin fibroblasts = assay: VLCFA ratios in control skin fibroblasts; format: cell-based, human; details: two weeks forskolin
Protocol: Measurement of VLCFA in Fibroblasts Fatty acid methyl ester (FAME) was prepared as described previously by Lepage and Roy (1986) with modifications. Fibroblast cells, suspended in HBSS, were disrupted by sonication to form a homogeneous solution. An aliquot (200 μl) of this solution was transferred to a glass tube and […] heptacosanoic (27:0) acid was added as internal standard and lipids were extracted by Folch partition. Fatty acids were transesterified with acetyl chloride (200 μl) in the presence of methanol and benzene (4:1) for 2 h at 100° C. The solution was cooled down to room temperature followed by addition of 5 ml 6% potassium carbonate solution at ice-cooled temperature. Isolation and purification of FAME were carried out as detailed by Dacremont et al. (1995). […]

[8] = test system: control human skin fibroblasts; assay: β-oxidation of lignoceric acid in control human skin fibroblasts; format: cell-based; details: 72 h; forskolin 4 μM; 1,9 dideoxy forskolin 4 μM; 8-Br-cAMP 50 μM; H-89 1 μM; myristoylated PKI 0.2 μM; Control 565.2 ± 48.3
[9] = test system: iNOS activity in rat primary astrocytes; assay: iNOS activity (arginine to citrulline) in homogenates of treated rat primary astrocytes; format: cell-based; details: Rattus norvegicus, Astrocyte, LPS 1 μg/ml, 24 h
Protocol: NOS activity was measured directly by production of L-[2,3,4,5-^3H]citrulline from L-[2,3,4,5-^3H] arginine (Feinstein et al., 1994a). […] Assays were carried out for 30 to 40 min and the production of L-[2,3,4,5-^3H] citrulline was linear. The reactions were stopped by addition of 800 μl of ice-cold 20 mM HEPES (pH 5.5) followed by addition of 2 ml of Dowex-50W equilibrated in the same buffer. The samples were then centrifuged and the concentration of L-[^3H]citrulline was determined in the supernatant by liquid scintillation counting.
Dose Dependence of Forskolin Inhibition of the LPS Stimulation of iNOS Astrocytes were incubated with different concentrations of forskolin 15 min before the addition of 1 μg/ml LPS, and after 24 h the iNOS activity was measured as nitrite concentrations in the supernatant and conversion of arginine to citrulline in the cellular homogenates (FIG. 1). The level of nitrite and iNOS activity were inhibited to a similar degree at all the concentrations of forskolin tested. […] . […] This may be due to the fact that PKA was already completely activated in extracts of cells incubated with 10 μM forskolin. The PKA activity increased with the increase in forskolin concentration. The reciprocal relationship of production of NO and iNOS activity with PKA activity supports the conclusion that PKA plays a pivotal role in the regulation of iNOS expression in astrocytes.

PKA = PKA activity (Kemptide phosphorylation) in rat primary astrocytes; format: cell-based; details: optimal concentration of forskolin, LPS 1.0 μg/ml, 1 h; taken as 100%

| SMILES | LPS-stimulated production of TNF-α [1] | LPS-stimulated production of IL-1β [2] | Production of TNF-α [3] [ng/24 h/mg protein] | Lignoceric acid β-oxidation ([4]; 72 h, forskolin 4 μM, 8-Br-cAMP 50 μM, rolipram 10 μM, H-89 1 μM, myristoylated PKI 0.2 μM) | increase of the oxidation of lignoceric acid ([4]; rolipram, two weeks, X-ALD fibroblasts with mutation or deletion) [%] | Production of IL-1β [5] [ng/24 h/mg protein] | ratios of C26:0/C22:0 and C24:0/C22:0 / level of VLCFA ([6]; about 15 days of treatment) | crossing of the blood brain barrier [7] | ratio of C26:0/C22:0 (control skin fibroblasts; from 0.04) | ratio of C24:0/C22:0 (control skin fibroblasts; from 1.23) | Lignoceric acid β-oxidation [8] [pmol/h/mg protein] | days of treatment until the ratios of C26:0/C22:0 and C24:0/C22:0 decreased to the normal level ([6]; X-ALD fibroblasts, forskolin 4 μM, lovastatin 5 μM, combination of lovastatin and NaPA) [days] | inhibition at 0.1 µM ([9]; forskolin 0.1 μM (lowest dose with significant effect)) [%] | inhibition at 10 µM ([9]; forskolin 10 μM) [%] | PKA activity (PKA) [pmol/min/mg] |
| --- | --- | --- | --- | --- | --- | --- | --- | --- | --- | --- | --- | --- | --- | --- | --- |
| COc1ccc(C2CNC(=O)C2)cc1OC1CCCC1 (centres unmarked) [Rolipram] | inhibited the LPS-stimulated production | inhibited the LPS-stimulated production | 1.2 ± 0.09 | stimulated lignoceric acid β-oxidation | 50 to 65 | 2.3 ± 0.3 | normalized the levels of VLCFA in these cell lines | does cross the blood brain barrier | – | – | – | – | – | – | – |
| C=C[C@@]1(C)CC(=O)[C@]2(O)[C@@]3(C)[C@@H](O)CCC(C)(C)[C@@H]3[C@H](O)[C@H](OC(C)=O)[C@@]2(C)O1 [forskolin] | – | – | 0.9 ± 0.1 | – | – | 1.9 ± 0.2 | – | – | 0.029 | 1.12 | 885.3 ± 62.1 | 12 to 15 | 30 | ~90 | 74.4 ± 9.4 |
